pIC50: −log10 of the molar value.

The results in this text go back to US20230167103A1 (Bayer Aktiengesellschaft, priority 2020, published 2023).

For the first assay, the target named is T1, human DGKζ (Homo sapiens, UniProt Q13574).
T1 construct: made in house; host or cells: Sf9 insect cells, baculovirus
T1 sequence (Q13574 with tags, fused parts or gaps): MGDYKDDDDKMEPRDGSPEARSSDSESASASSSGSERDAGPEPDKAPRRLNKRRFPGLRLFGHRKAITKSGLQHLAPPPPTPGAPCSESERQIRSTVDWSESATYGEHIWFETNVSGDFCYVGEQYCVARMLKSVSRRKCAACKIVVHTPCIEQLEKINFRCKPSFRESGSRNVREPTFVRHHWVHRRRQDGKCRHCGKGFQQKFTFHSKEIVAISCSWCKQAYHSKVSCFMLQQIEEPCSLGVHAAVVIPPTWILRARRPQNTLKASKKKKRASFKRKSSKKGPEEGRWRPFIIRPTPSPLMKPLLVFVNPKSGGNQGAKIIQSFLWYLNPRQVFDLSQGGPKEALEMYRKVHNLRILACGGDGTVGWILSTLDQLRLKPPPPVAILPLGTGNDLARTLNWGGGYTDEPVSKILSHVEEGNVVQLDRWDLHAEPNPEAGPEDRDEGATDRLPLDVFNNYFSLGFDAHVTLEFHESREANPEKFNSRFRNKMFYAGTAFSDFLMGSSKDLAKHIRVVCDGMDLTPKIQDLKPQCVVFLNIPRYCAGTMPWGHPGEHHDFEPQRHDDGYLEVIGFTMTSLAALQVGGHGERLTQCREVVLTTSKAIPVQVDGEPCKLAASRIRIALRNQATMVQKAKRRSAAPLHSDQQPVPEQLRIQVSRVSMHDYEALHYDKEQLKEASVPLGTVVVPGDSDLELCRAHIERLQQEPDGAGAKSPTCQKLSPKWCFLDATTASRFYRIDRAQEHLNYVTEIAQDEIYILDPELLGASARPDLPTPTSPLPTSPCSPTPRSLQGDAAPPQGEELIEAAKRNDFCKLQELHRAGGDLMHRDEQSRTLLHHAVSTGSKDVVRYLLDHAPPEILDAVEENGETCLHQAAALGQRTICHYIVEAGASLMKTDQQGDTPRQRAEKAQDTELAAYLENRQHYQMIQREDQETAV
In words: Human DGKζ kinase activity inhibition assay (ADP-Glo). The assay is classed as biochemical. To be noted: example compounds; recombinant full-length human DGKζ, 1,2-dioleoyl-sn-glycerol 7 μM, ATP 55 μM, 20 min at 22° C.; read-out: IC50 values of examples in in vitro human DGKζ kinase activity inhibition assays. The procedure:
Human diacylglycerol kinase zeta (DGKζ) inhibitory activity of compounds of the present invention was quantified employing the human DGKζ kinase activity assay as described in the following paragraphs. In essence, the enzyme activity was measured by quantification of the adenosine-di-phosphate (ADP) generated as a co-product of the enzyme reaction via the “ADP-Glo™ Kinase Assay” kit from the company Promega. This detection system works as follows: In a first step the adenosine-tri-phosphate (ATP) not consumed in the kinase reaction is quantitatively converted to cyclic adenosine-mono-phosphate (cAMP) employing an adenylate cyclase (“ADP-Glo-reagent”), then the adenylate cyclase is stopped and the ADP generated in the kinase reaction is converted to ATP, which subsequently generates in a luciferase-based reaction a glow-luminescence signal (“Kinase Detection Reagent”).
C-terminally FLAG-tagged, recombinant full-length human DGKζ (inhouse expressed in baculovirus infected insect cells, purified using anti-Flag pulldown and size exclusion chromatography) was used as enzyme. As an alternative, commercially available enzyme by Carnabio can be used. As substrate for the kinase, 1,2-dioleoyl-sn-glycerol, reconstituted in octyl-β-D-glucopyranoside micelles, was used. […] Subsequently, 22.55 volumes of a 510 mM solution of octyl-β-D-glucopyranoside (Sigma-Aldrich, Cat. #O8001-10G) in 50 mM MOPS buffer (pH 7.4) were added, and the mixture was sonicated in an ultrasonic bath for 20 s. Then 35 volumes of 50 mM MOPS buffer (pH 7.4) were added to yield a solution of 0.28 mM 1,2 dioleoyl-sn-glycerol and 200 mM octyl-β-D-glucopyranoside, which was aliquoted, flash-frozen in liquid nitrogen, and stored at −20° C. until use.
For the assay 50 nl of a 100-fold concentrated solution of the test compound in dimethyl sulfoxide (DMSO, Sigma) was pipetted into either a white 1536-well or a white low-volume 384-well microtiter plate (both Greiner Bio-One, Frickenhausen, Germany). […] The concentration of DGKζ was adjusted depending of the activity of the enzyme lot and was chosen appropriate to have the assay in the linear range, a typical concentration is about 0.1 nM. The reaction was stopped by the addition of 2.5 μL of “ADP-Glo-reagent” (1 to 1.5 diluted with water) and the resulting mixture was incubated at 22° C. for 1 h to convert the ATP not consumed in the kinase reaction completely to cAMP. Subsequently 2.5 μl of the “kinase detection reagent” (1.2 fold more concentrated than recommended by the producer) were added, the resulting mixture was incubated at 22° C. for 1 h and then the luminescence measured with a suitable measurement instrument (e.g. Viewlux™ from Perkin-Elmer). The amount of emitted light was taken as a measure for the amount of ADP generated and thereby for the activity of the DGKζ.
The data were normalised (enzyme reaction without inhibitor=0% inhibition, all other assay components but no enzyme=100% inhibition).
(In ADP-Glo the light output rises with the ADP produced.)
Consider `Cc1noc(C(=O)c2sc(N(c3ccc(F)cc3)C(C)C(N)=O)nc2N)n1` (racemic) [Example 52, rac-2-(N-[4-amino-5-(3-methyl-1,2,4-oxadiazole-5-carbonyl)thiazol-2-yl]-4-fluoro-anilino)propanamide], for which the pIC50 was 6.39. The same measure, in the same setting: next, `CC(C(N)=O)N(c1ccc(F)cc1)c1nc(N)c(C(=O)c2cc(-c3ccccc3)no2)s1` (racemic) [Example 3, rac-2-(N-[4-amino-5-(3-phenylisoxazole-5-carbonyl)thiazol-2-yl]-4-fluoro-anilino)propanamide]: 6.98; `CC(C(N)=O)N(c1ccc(F)cc1)c1nc(N)c(C(=O)c2cc(C(=O)NC3(C)CCC3)no2)s1` (single isomer, unassigned) [Example 30.2, 5-[4-amino-2-(N-(2-amino-1-methyl-2-oxo-ethyl)-4-fluoro-anilino)thiazole-5-carbonyl]-N-(1-methylcyclobutyl)isoxazole-3-carboxamide]: 4.87.

Consider `CC(C(N)=O)N(c1ccc(F)cc1)c1nc(N)c(C(=O)c2cc(COc3ccc(C#N)cc3)no2)s1` (racemic) [Example 64, rac-2-(N-[4-amino-5-[3-[(4-cyanophenoxy)methyl]isoxazole-5-carbonyl]thiazol-2-yl]-4-fluoro-anilino)propanamide], for which the pIC50 was 7.49. Still for that read-out and setting: next, `CC(C(N)=O)N(c1ccc(F)c(F)c1)c1nc(N)c(C(=O)c2cc(C(=O)NC3CCCC3)no2)s1` (single isomer, unassigned) [Example 46.2, 5-[4-amino-2-(N-(2-amino-1-methyl-2-oxo-ethyl)-3,4-difluoro-anilino)thiazole-5-carbonyl]-N-cyclopentyl-isoxazole-3-carboxamide]: 5.64; `CC(C(N)=O)N(c1ccc(F)cc1)c1nc(N)c(C(=O)c2nc(-c3cnn(C)c3)no2)s1` (racemic) [Example 58, rac-2-(N-[4-amino-5-[3-(1-methylpyrazol-4-yl)-1,2,4-oxadiazole-5-carbonyl]thiazol-2-yl]-4-fluoro-anilino)propanamide]: 6.49; `CC(C(N)=O)N(c1ccc(F)cc1)c1nc(N)c(C(=O)c2cc(C(=O)Nc3cccnc3)no2)s1` (racemic) [Example 20, rac-5-[4-amino-2-(N-(2-amino-1-methyl-2-oxo-ethyl)-4-fluoro-anilino)thiazole-5-carbonyl]-N-(3-pyridyl)isoxazole-3-carboxamide]: 6.52. On the same count and under the same terms, next, `CC(C(N)=O)N(c1ccc(F)c(F)c1)c1nc(N)c(C(=O)c2cc(C(=O)NC3CCCC3)no2)s1` (racemic) [Example 46, rac-5-[4-amino-2-(N-(2-amino-1-methyl-2-oxo-ethyl)-3,4-difluoro-anilino)thiazole-5-carbonyl]-N-cyclopentyl-isoxazole-3-carboxamide]: 7.11. On the same count and under the same terms, next, `CC(C(N)=O)N(c1ccc(F)cc1)c1nc(N)c(C(=O)c2cc(OC3CCC(F)(F)CC3)no2)s1` (racemic) [Example 81, rac-2-(N-[4-Amino-5-[3-(4,4-difluorocyclohexoxy)isoxazole-5-carbonyl]thiazol-2-yl]-4-fluoro-anilino)propanamide]: 7.77. Regarding `CCOC(=O)c1cc(C(=O)c2sc(N(c3ccc(F)cc3)C(C)C(N)=O)nc2N)on1` (racemic) [Example 9, rac-Ethyl 5-[4-amino-2-(N-(2-amino-1-methyl-2-oxo-ethyl)-4-fluoro-anilino)thiazole-5-carbonyl]isoxazole-3-carboxylate], the pIC50 is 6.72. Consider `CC(C(N)=O)N(c1ccc(F)cc1)c1nc(N)c(C(=O)c2cc(Br)no2)s1` (single isomer, unassigned) [Example 6.2, 2-(N-[4-amino-5-(3-bromoisoxazole-5-carbonyl)thiazol-2-yl]-4-fluoro-anilino)propanamide], for which the pIC50 is 5.46.

Staying with this assay, now noted: intermediates (comparative, lacking the R2 alkyl-carboxamide group); same assay conditions; read-out: IC50 values of intermediates in in vitro human DGKζ kinase activity inhibition assays.
In the case of “rac-5-[4-amino-2-(N-(2-amino-1-methyl-2-oxo-ethyl)-4-fluoro-anilino)thiazole-5-carbonyl]-N-(1-methylcyclobutyl)isoxazole-3-carboxamide [Example 30]”, the pIC50 was 4.92.

A word on the pIC50: it is the IC50 on a negative log10 scale, so that one unit is a factor of ten.
